We go through four compounds from paper PMC10253522 (2023).

The experiment deals with aptamer beacon probe (ABP) (DNA, aptamer) ATTCTCTCACCTGGGGGAGTATTGCGGAGGAAGGTAT
The experiment can be described thus: FAM-Dabcyl fluorescence quenching and fluorescence melting. The settings on record: 100 mM NaCl, 5 mM MgCl2, 20 mM Tris-HCl pH 7.4, 23 and 40 °C.

On to `Nc1ncnc2c1ncn2[C@@H]1O[C@H](COP(=O)(O)OP(=O)(O)OP(=O)(O)O)[C@@H](O)[C@H]1O`, for which the binding entry (133 nM probe, up to 625 µM ATP) is recorded as “yes”.
As for `Nc1ccn([C@@H]2O[C@H](COP(=O)(O)OP(=O)(O)OP(=O)(O)O)[C@@H](O)[C@H]2O)c(=O)n1`, the binding result (625 µM CTP, no complex in melting, residual quenching) is listed as “weak”.
As for `O=c1ccn([C@@H]2O[C@H](COP(=O)(O)OP(=O)(O)OP(=O)(O)O)[C@@H](O)[C@H]2O)c(=O)[nH]1`, the binding result (625 µM UTP, no complex in melting, residual quenching) is “weak”.
Turning to `Nc1nc2c(ncn2[C@@H]2O[C@H](COP(=O)(O)OP(=O)(O)OP(=O)(O)O)[C@@H](O)[C@H]2O)c(=O)[nH]1`, the binding entry (625 µM GTP, no complex in melting, residual quenching) was “weak”.
